Where only a bound is given, the exact number is not on record here.

As usually defined, the IC50 is the midpoint of a concentration-inhibition curve. Lower therefore signals greater potency.

One assay has as its target T1, BIR3 domain of XIAP (Homo sapiens, UniProt P98170).
T1 construct: BIR3 domain, corresponding to amino acids 241-356 of XIAP
Description: TR-FRET assay for BIR3 (inhibition of binding of XIAP BIR3 domain to SMAC-derived Peptide A). The following applies: 6x Histidine-tagged BIR3 domain (amino acids 241-356 of XIAP) 10 nM, Peptide A 20 nM. The gist of the method:
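His6-tagged XIAP BIR3 (aa 241-356, 10 nM) was mixed with 20 nM biotinylated SMAC-derived peptide in 50 mM Tris-Cl pH 7.5, 100 mM NaCl, 1 mM DTT, 0.1 mg/mL BSA and incubated 45 min at 37 °C. Eu-streptavidin (1.5 nM) and APC anti-His (15 nM) were added, with TR-FRET read 1 h later at RT. IC50 came from % inhibition over 10 serial concentrations.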
A general note: In TR-FRET formats the signal depends on donor and acceptor labels being close together.

For a further assay, the target named is T2, BIR2 domain of XIAP (Homo sapiens, UniProt P98170, C202A/C213G).
T2 construct: 6× Histidine-tagged BIR2 domain, corresponding to amino acids 124-240 of XIAP
Description: TR-FRET assay for BIR2 (inhibition of binding of XIAP BIR2 domain to SMAC-derived Peptide A). The following applies: 6x Histidine-tagged BIR2 domain (amino acids 124-240 of XIAP) 10 nM, Peptide A 20 nM. The gist of the method:
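Inhibition of binding of the XIAP BIR2 domain (C202A/C213G) to biotinylated SMAC-derived Peptide A was measured. TR-FRET signal was read after 1 h at room temperature.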

T2 sequence (P98170 with tags, fused parts or gaps C202A/C213G): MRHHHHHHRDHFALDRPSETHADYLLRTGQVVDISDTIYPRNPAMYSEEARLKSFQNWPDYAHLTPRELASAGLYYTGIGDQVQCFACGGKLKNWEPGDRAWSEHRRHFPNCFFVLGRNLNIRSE
T1 sequence (P98170 with tags, fused parts or gaps): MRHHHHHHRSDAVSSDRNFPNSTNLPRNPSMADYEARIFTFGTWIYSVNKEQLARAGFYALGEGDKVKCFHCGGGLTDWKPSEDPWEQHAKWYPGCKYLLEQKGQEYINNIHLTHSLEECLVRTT

In the case of `CN[C@@H](C)C(=O)N[C@H](C(=O)N1c2ncccc2C[C@H]1C(=O)Nc1ccccc1C#N)C(C)C` [Example 48, (S)-1-[(S)-3-Methyl-2-((S)-2-methylamino-propionylamino)-butyryl]-2,3-dihydro-1H-pyrrolo[2,3-b]pyridine-2-carboxylic acid (2-cyano-phenyl)-amide], the figures for the IC50 at BIR3 domain of XIAP and at BIR2 domain of XIAP were more than 54800 nM and 54.9 nM, respectively.
Regarding `CN[C@@H](C)C(=O)N[C@H](C(=O)N1c2ncccc2C[C@H]1C(=O)Nc1ccc(C(=O)OC)cc1F)C(C)C` [Example 49, 3-Fluoro-4-({(S)-1-[(S)-3-methyl-2-((S)-2-methylamino-propionylamino)-butyryl]-2,3-dihydro-1H-pyrrolo[2,3-b]pyridine-2-carbonyl}-amino)-benzoic acid methyl ester], the IC50 is more than 54800 nM at BIR3 domain of XIAP and 102 nM on BIR2 domain of XIAP.
Turning to `CN[C@@H](C)C(=O)N[C@H](C(=O)N1c2ncccc2C[C@H]1C(=O)Nc1ccc(S(C)(=O)=O)cc1F)C(C)C` [Example 50, (S)-1-[(S)-3-Methyl-2-((S)-2-methylamino-propionylamino)-butyryl]-2,3-dihydro-1H-pyrrolo[2,3-b]pyridine-2-carboxylic acid (2-fluoro-4-methanesulfonyl-phenyl)-amide], the IC50 is more than 54800 nM on BIR3 domain of XIAP and 89.3 nM at BIR2 domain of XIAP.
For the compound `CN[C@@H](C)C(=O)N[C@H](C(=O)N1c2ncccc2C[C@H]1C(=O)NCCS(C)(=O)=O)C(C)C` [Example 51, (S)-1-[(S)-3-Methyl-2-((S)-2-methylamino-propionylamino)-butyryl]-2,3-dihydro-1H-pyrrolo[2,3-b]pyridine-2-carboxylic acid (2-methanesulfonyl-ethyl)-amide], the IC50 on BIR3 domain of XIAP was more than 54800 nM; at BIR2 domain of XIAP, 828 nM.
In the same order, the values of `CN[C@@H](C)C(=O)N[C@H](C(=O)N1c2ncccc2C[C@H]1C(=O)NC(C)c1ccccc1)C(C)C` (stereo partly drawn) [Example 52, (S)-1-[(S)-3-Methyl-2-((S)-2-methylamino-propionylamino)-butyryl]-2,3-dihydro-1H-pyrrolo[2,3-b]pyridine-2-carboxylic acid (1-phenyl-ethyl)-amide] are 21500 nM and 978 nM.
On the same counts, the results for `CN[C@@H](C)C(=O)N[C@H](C(=O)N1c2ncccc2C[C@H]1C(=O)NCCS(=O)(=O)N(C)C)C(C)C` [Example 53, (S)-1-[(S)-3-Methyl-2-((S)-2-methylamino-propionylamino)-butyryl]-2,3-dihydro-1H-pyrrolo[2,3-b]pyridine-2-carboxylic acid (2-dimethylsulfamoyl-ethyl)-amide] are more than 54800 nM and 740 nM.
In the same order, the values of `CN[C@@H](C)C(=O)N[C@H](C(=O)N1c2ncccc2C[C@H]1C(=O)NC(C)(C)c1ccccc1)C(C)C` [Example 54, (S)-1-[(S)-3-Methyl-2-((S)-2-methylamino-propionylamino)-butyryl]-2,3-dihydro-1H-pyrrolo[2,3-b]pyridine-2-carboxylic acid (1-methyl-1-phenyl-ethyl)-amide] are 47400 nM and 4730 nM.
Turning to `CN[C@@H](C)C(=O)N[C@H](C(=O)N1c2ncccc2C[C@H]1C(=O)NCc1cc(F)ccc1C)C(C)C` [Example 55, (S)-1-[(S)-3-Methyl-2-((S)-2-methylamino-propionylamino)-butyryl]-2,3-dihydro-1H-pyrrolo[2,3-b]pyridine-2-carboxylic acid 5-fluoro-2-methyl-benzylamide], the IC50 at BIR3 domain of XIAP amounted to 35300 nM; at BIR2 domain of XIAP, 139 nM.
On the same counts, the results for `CN[C@@H](C)C(=O)N[C@H](C(=O)N1c2ncccc2C[C@H]1C(=O)Nc1cncnc1)C(C)C` [Example 56, (S)-1-[(S)-3-Methyl-2-((S)-2-methylamino-propionylamino)-butyryl]-2,3-dihydro-1H-pyrrolo[2,3-b]pyridine-2-carboxylic acid pyrimidin-5-ylamide] are more than 54800 nM and 1630 nM.
Regarding `CN[C@@H](C)C(=O)N[C@H](C(=O)N1c2ncccc2C[C@H]1C(=O)Nc1ccc2ccccc2c1)C(C)C` [Example 57, (S)-1-[(S)-3-Methyl-2-((S)-2-methylamino-propionylamino)-butyryl]-2,3-dihydro-1H-pyrrolo[2,3-b]pyridine-2-carboxylic acid naphthalen-2-ylamide], the values for the IC50 at BIR3 domain of XIAP and at BIR2 domain of XIAP were more than 54800 nM and 164 nM, respectively.
On the same counts, the results for `CN[C@@H](C)C(=O)N[C@H](C(=O)N1c2ncccc2C[C@H]1C(=O)Nc1ccc(C#N)cc1F)C(C)C` [Example 58, (S)-1-[(S)-3-Methyl-2-((S)-2-methylamino-propionylamino)-butyryl]-2,3-dihydro-1H-pyrrolo[2,3-b]pyridine-2-carboxylic acid (4-cyano-2-fluoro-phenyl)-amide] are more than 54800 nM and 140 nM.
With `CN[C@@H](C)C(=O)N[C@H](C(=O)N1c2ncccc2C[C@H]1C(=O)Nc1ccc(C(F)(F)F)cc1F)C(C)C` [Example 59, (S)-1-[(S)-3-Methyl-2-((S)-2-methylamino-propionylamino)-butyryl]-2,3-dihydro-1H-pyrrolo[2,3-b]pyridine-2-carboxylic acid (2-fluoro-4-trifluoromethyl-phenyl)-amide], the IC50 at BIR3 domain of XIAP is more than 54800 nM; on BIR2 domain of XIAP it was 53.6 nM.
`CN[C@@H](C)C(=O)N[C@H](C(=O)N1c2ncccc2C[C@H]1C(=O)Nc1cccc(F)c1F)C(C)C` [Example 60, (S)-1-[(S)-3-Methyl-2-((S)-2-methylamino-propionylamino)-butyryl]-2,3-dihydro-1H-pyrrolo[2,3-b]pyridine-2-carboxylic acid (2,3-difluoro-phenyl)-amide]: the IC50 at BIR3 domain of XIAP was more than 54800 nM; on BIR2 domain of XIAP it was 38.2 nM.
On the same counts, the results for `CN[C@@H](C)C(=O)N[C@H](C(=O)N1c2ncccc2C[C@H]1C(=O)Nc1cc(F)ccc1F)C(C)C` [Example 61, (S)-1-[(S)-3-Methyl-2-((S)-2-methylamino-propionylamino)-butyryl]-2,3-dihydro-1H-pyrrolo[2,3-b]pyridine-2-carboxylic acid (2,5-difluoro-phenyl)-amide] are more than 54800 nM and 34.8 nM.
On the same counts, the results for `CN[C@@H](C)C(=O)N[C@H](C(=O)N1c2ncccc2C[C@H]1C(=O)Nc1ccc(C(=O)N(C)C)cc1F)C(C)C` [Example 62, (S)-1-[(S)-3-Methyl-2-((S)-2-methylamino-propionylamino)-butyryl]-2,3-dihydro-1H-pyrrolo[2,3-b]pyridine-2-carboxylic acid (4-dimethylcarbamoyl-2-fluoro-phenyl)-amide] are more than 54800 nM and 35.1 nM.
Regarding `CN[C@@H](C)C(=O)N[C@H](C(=O)N1c2ncccc2C[C@H]1C(=O)Nc1ccc(Br)cc1F)C(C)C` [Example 63, (S)-1-[(S)-3-Methyl-2-((S)-2-methylamino-propionylamino)-butyryl]-2,3-dihydro-1H-pyrrolo[2,3-b]pyridine-2-carboxylic acid (4-bromo-2-fluoro-phenyl)-amide], the half-inhibitory concentration (IC50) at BIR3 domain of XIAP was more than 54800 nM; on BIR2 domain of XIAP, 32 nM.
In the case of `CNC(=O)c1ccc(NC(=O)[C@@H]2Cc3cccnc3N2C(=O)[C@@H](NC(=O)[C@H](C)NC)C(C)C)c(F)c1` [Example 64, (S)-1-[(S)-3-Methyl-2-((S)-2-methylamino-propionylamino)-butyryl]-2,3-dihydro-1H-pyrrolo[2,3-b]pyridine-2-carboxylic acid (2-fluoro-4-methylcarbamoyl-phenyl)-amide], the results for the IC50 on BIR3 domain of XIAP and on BIR2 domain of XIAP were more than 54800 nM and 59.6 nM, respectively.
In the same order, the values of `CN[C@@H](C)C(=O)N[C@H](C(=O)N1c2ncccc2C[C@H]1C(=O)Nc1ccc(F)cc1F)C(C)C` [Example 65, (S)-1-[(S)-3-Methyl-2-((S)-2-methylamino-propionylamino)-butyryl]-2,3-dihydro-1H-pyrrolo[2,3-b]pyridine-2-carboxylic acid (2,4-difluoro-phenyl)-amide] are more than 54800 nM and 35.1 nM.
In the case of `CN[C@@H](C)C(=O)N[C@H](C(=O)N1c2ncccc2C[C@H]1C(=O)Nc1nc(C)cs1)C(C)C` [Example 66, (S)-1-[(S)-3-Methyl-2-((S)-2-methylamino-propionylamino)-butyryl]-2,3-dihydro-1H-pyrrolo[2,3-b]pyridine-2-carboxylic acid (4-methyl-thiazol-2-yl)-amide], the IC50 is more than 54800 nM on BIR3 domain of XIAP and 496 nM on BIR2 domain of XIAP.
On the same counts, the results for `CN[C@@H](C)C(=O)N[C@H](C(=O)N1c2ncccc2C[C@H]1C(=O)Nc1ncc(C)s1)C(C)C` [Example 67, (S)-1-[(S)-3-Methyl-2-((S)-2-methylamino-propionylamino)-butyryl]-2,3-dihydro-1H-pyrrolo[2,3-b]pyridine-2-carboxylic acid (5-methyl-thiazol-2-yl)-amide] are more than 54800 nM and 92.6 nM.
In the same order, the values of `CN[C@@H](C)C(=O)N[C@H](C(=O)N1c2ncccc2C[C@H]1C(=O)Nc1ccncc1F)C(C)C` [Example 69, (S)-1-[(S)-3-Methyl-2-((S)-2-methylamino-propionylamino)-butyryl]-2,3-dihydro-1H-pyrrolo[2,3-b]pyridine-2-carboxylic acid (3-fluoro-pyridin-4-yl)-amide] are more than 54800 nM and 105 nM.
